According to patent US20230301972A1, “ANTI-FIBROTIC COMPOSITION AND RELATED METHODS” (Fred Hutchinson Cancer Center, priority 2020, published 2023):

How the values were obtained:
[1] = cited from earlier work
[2] = system: TGF-β activity in LX2 cells; assay: SMAD2/3 luciferase reporter assay of TGF-β activity in LX2 cells; assay type: cell-based, human
From the text: In preliminary studies, a well-established, culture-activated human hepatic stellate cell model (LX2, initially established by Scott Friedman as described in Xu, L. et al., Human hepatic stellate cell lines, LX-1 and LX-2: new tools for analysis of hepatic fibrosis. Gut 54, 142-151 (2005), incorporated herein by reference in its entirety) was used and a set of 32 computationally chosen, broad-specific kinase inhibitors that collectively target a broad range of kinases were screened. Each drug was examined at eight concentrations, and its effect on the activity of TGF-β (measured by SMAD2/3 luciferase reporter) and on aHSC cell viability was scored. 1536 data points were then analyzed to develop regression modeling to predict the response to >400 drugs (FIG. 9A). […] (FIG. 9B).
LX2 cells were obtained from Sigma Aldrich (Cat #SCC064). LX2 cells were grown at 37° C. under 5% CO2, 95% ambient atmosphere and maintained in Dulbecco's […] (DMEM) supplemented with 10% FBS (Sigma) and 1% Penn Strep.

[3] = system: bleomycin-induced lung fibrosis; assay: Bleomycin-induced lung fibrosis mouse model; assay type: in vivo
Description: FIG. 6B: Male C57BL/6J mice between 7-10 week old were used in the study. A single dose of 50 IU of bleomycin was given to mouse lung via oropharyngeal aspiration to induce lung fibrosis. […] Mice were sacrificed on Day 28 after bleomycin treatment. Lungs were either snap frozen or fixed in 10% formalin and stained for H&E and Masson Trichrome.
FIG. 6C: H&E and Masson Trichrome staining were evaluated and scored by a board-certified veterinary pathologist.
FIG. 7A: Total protein was extracted from the snap frozen lung tissue in T-PER™ Tissue Protein Extraction Reagent by Omni Bead Ruptor homogenizer. Changes in collagen I and the phosphorylation levels of indicated proteins were detected in the lung homogenates from the bleomycin in vivo studies by reverse-phase protein array.
FIG. 7B: pSTAT3 levels were detected in the fixed lung tissue by immunohistochemistry. Intensity of staining was quantified by HALO imaging software.
FIG. 8: Total RNA was extracted from the snap frozen lung tissue in TRIzol™ Reagent by Omni Bead Ruptor homogenizer. 1 μg of total RNA was reverse transcribed into first-strand cDNA using an RT2 First Strand Kit (QIAGEN). The resultant cDNA was subjected to qPCR using indicated mouse primers to measure the changes in mRNA expression of indicated mouse genes.
A single dose of 25-50 IU of bleomycin was given to mouse lung via oropharyngeal aspiration to induce lung fibrosis. […] Lungs were processed and stained for H&E and Masson Trichrome.

TGF-β = assay: Time course of TGF-β-induced phosphorylation of SMAD2 and ERK in IPF-LL29 cells (reverse-phase protein array); assay type: cell-based, human; settings: 1 mM OSI-632 as printed, TGF-β 5 ng/ml
Description: IPF-LL29, IPF-LL97A, and human lung fibroblast LL47 cell lines were purchased from ATCC. Mouse lung fibroblasts were isolated from the lungs of male C57BL/6J mice. Cells were grown at 37° C. under 5% CO2, 95% ambient atmosphere and maintained in Dulbecco's […] (DMEM) supplemented with 10% FBS (Sigma) and 1% Penn Strep.
FIG. 1B. […] At the end of the experiment, cells were lysed in 2% SDS lysis buffer. Protein levels of phosphorylated SMAD2 and ERK were detected in the cell lysates by reverse-phase protein array.

LL47 cells = assay: Real-time wound healing assay (Incucyte) in lung fibroblasts; assay type: cell-based; settings: dose-dependent; human lung fibroblasts
Description: FIG. 5A: LL47 cells were plated on 96-well plates (Essen Image Lock, Essen Instruments). […] Wound closure was monitored with Incucyte Live-Cell Imaging System and software (Essen Instruments) every 2-4 hours for 72 hours. The mean relative wound density of at least three biological replicates was calculated. The wound density correlates with the cell motility.

IPF lung fibroblasts = assay: Collagen contraction assay in lung fibroblasts; assay type: cell-based, human
Description: FIG. 5B: LL-47 cells were cultured in a collagen gel solution in 24-well plate. […] After 24 hours, cell contraction was initiated by releasing the collagen gels from the sides of the culture dishes. The collagen gel size change (contraction index) was measured at various times and quantified with Image Lab.
FIG. 5C: same method as outlined in FIG. 5B. IPF-LL29 and IPF-LL97A cells were cultured in a collagen gel solution. 24 hours later, TGF-β alone or together with indicated drugs was added for 24 hours before cell contraction was initiated. Images shown here were taken 120 hours after the initiation of cell contraction.

NC(=O)c1c(OCc2c(F)cc(Br)cc2F)nsc1NC(=O)NCCCCN1CCCC1 [OSI-632, 3-(4-bromo-2,6-difluoro-benzyloxy)-5-[3-(4-pyrrolidin-1-yl-butyl)-ureido]-isothiazole-4-carboxylic acid amide]
bleeding and thrombosis toxicity ([1]; as sometimes observed with agents targeting VEGF/VEGFR): neither had toxicity issues of bleeding and thrombosis | adverse events in the liver ([1]; in vivo): nor does it cause any adverse events in the liver | maximal tolerable dose ([1]; phases I and II trials for various cancers): 200 mg/day | safety and tolerability ([1]; phases I and II trials, toxicities primarily low grade and readily managed): safe and well-tolerated | IC50 ([2]; Homo sapiens, LX-2, SMAD2/3 luciferase reporter): 13.7 nM | block of TGF-β activity compared with galunisertib and pirfenidone ([2]; LX2 cells): outperformed | lung fibrosis, scoring of H&E and Masson Trichrome staining by veterinary pathologist ([3]; 50 mg/kg oral, once a day Monday to Friday for 2 weeks, mice): significantly decreased lung fibrosis | lung inflammation, scoring of H&E and Masson Trichrome staining ([3]; bleomycin mouse model): significantly decreased | overall survival ([3]; bleomycin mouse model, OSI-632 treatment): 100% | collagen deposition (Masson trichome staining) ([3]; vs bleomycin only treated mice, 50 mg/kg): significant reduction | phosphorylation of Src, Erk, JNK, S6, Nfκβ, and pSTAT3 in lung ([3]; vs bleomycin-only treated mouse lung tissues, RPPA, IHC): significantly decreased | bleomycin-induced collagen levels and pro-fibrotic factors Fn1, IL-6 and IL-1b in lung ([3]; vs bleomycin-only treated mouse lung tissues, RPPA, qPCR): significantly decreased | activity of TGF-β (measured by phosphorylation of SMAD2/3 and Erk) (TGF-β): significantly decreased | motility (cell migration), real-time wound healing assay (LL47 cells): potently decreased motility | contractility in collagen contraction assay (IPF lung fibroblasts; 0.5 or 1 mM OSI-632 as printed, TGF-β-stimulated): significantly decreased contractility | inhibition of motility and contraction compared with nintedanib or pirfenidone (IPF lung fibroblasts; collagen contraction assay, IPF-LL29 and IPF-LL97A cells, 120 hours): significantly outperforms inhibition by nintedanib or pirfenidone
